Results published in patent publication US5240695A, “Use of 2-hydroxy-4-methoxybenzophenone-5-sulphonic acid or its salts for protecting the hair against environmental attacking agents, and especially against light and process for protecting the hair using the compound” (L'Oreal, priority 1988, dated 1993).

Assays:
[1] = Suntest exposure (xenon emitter) of bleached hair, 15% extension level in the wet state; details: 120 hours Suntest; for mean value of the 15% extension level in the wet state: no rinse
[2] = Suntest exposure (xenon emitter) of permanent-waved natural hair, 15% extension level in the wet state; details: Example 2 styling foam (0.5 g UVINUL MS 40 in 100 g composition before aerosol packaging), no rinse, 180 hours Suntest, vs foam without UVINUL MS 40
Description: Permanent-waved natural hair receives an application of this foam and then, without this being followed by a rinse, is subjected to 180 hours' exposure to the Suntest, as described in Example 1.

**Q.** With `COc1cc(O)c(C(=O)c2ccccc2)cc1S(=O)(=O)O` [UVINUL MS 40, 2-hydroxy-4-methoxybenzophenone-5-sulphonic acid] as the compound, how does the “mean values of the 15% extension level in the wet state” value ([1]; Example 1 shampoo (1 g/100 g UVINUL MS 40), washed five times, vs shampoo base without UVINUL MS 40) read?
**A.** substantial improvement

**Q.** And the “mean value of the 15% extension level in the wet state” value (“mean value of the 15% extension level” below) ([1]; Example 3 styling gel (0.3 g/100 g UVINUL MS 40), three applications, vs gel without UVINUL MS 40)?
**A.** significant improvement

**Q.** And the “mean value of the 15% extension level” value ([1]; Example 4 styling spray (1 g/100 g UVINUL MS 40), one application, vs spray without UVINUL MS 40)?
**A.** improved very appreciably

**Q.** What about the “mean value of the 15% extension level” value [2] of the same compound?
**A.** significant improvement
